We go through eleven compounds from BigSolDB 2.1.

The conditions of this data set: in n-hexane.

On to `CCc1ccc(NC2=NCCC3(CCCCC3)S2)cc1`, for which the solubility (mole fraction) (in general, solubility expressed as the solute's share of all molecules) is 0.000365 (293.15 K); 0.000431 (298.15 K); 0.000508 (303.15 K); 0.000617 (310.15 K); 0.000885 (315.15 K).

As for `CC(=O)c1ccc(NC2=NCCC3(CCCCC3)S2)cc1`, the solubility (mole fraction) by setting is: (293.15 K) 1.56e-05; (298.15 K) 1.93e-05; (303.15 K) 2.42e-05; (310.15 K) 3.23e-05; (315.15 K) 3.95e-05.

Regarding `FC(F)(F)c1ccc(NC2=NCCC3(CCCCC3)S2)cc1`, the solubility (mole fraction) came to 0.000214 (293.15 K); 0.000272 (298.15 K); 0.000345 (303.15 K); 0.000424 (310.15 K); 0.00057 (315.15 K).

For the compound `Cc1ccc(NC2=NCCC3(CCCCC3)S2)cc1Cl`, the solubility (mole fraction) came to 8.6e-06 (293.15 K); 1.15e-05 (298.15 K); 1.48e-05 (303.15 K); 2.15e-05 (310.15 K); 2.68e-05 (315.15 K).

For the compound `O=C(NC1=NCCC2(CCCCC2)S1)c1ccccc1`, the solubility (mole fraction) runs as follows: (293.15 K) 0.000124; (298.15 K) 0.000153; (303.15 K) 0.000189; (310.15 K) 0.00025; (315.15 K) 0.000295.

`CC(C)c1ccc(NC2=NCCC3(CCCCC3)S2)cc1`: the solubility (mole fraction) is, setting by setting: (293.15 K) 0.000514; (298.15 K) 0.00061; (303.15 K) 0.000742; (310.15 K) 0.000919; (315.15 K) 0.0011.

`c1ccc(NC2=NCCC3(CCCCC3)S2)cc1`: the solubility (mole fraction) (293.15 K) came out at 0.00115; the solubility (mole fraction) (298.15 K) worked out at 0.0013; the solubility (mole fraction) (303.15 K) turned out to be 0.00148; the solubility (mole fraction) (310.15 K) worked out at 0.0019; the solubility (mole fraction) (315.15 K) stood at 0.00215.

With `Clc1ccc(NC2=NCCC3(CCCCC3)S2)cc1`, the solubility (mole fraction) (293.15 K) turned out to be 6.09e-05; the solubility (mole fraction) (298.15 K) was determined as 7.93e-05; the solubility (mole fraction) (303.15 K) was found to be 0.000101; the solubility (mole fraction) (310.15 K) was 0.000136; the solubility (mole fraction) (315.15 K) came to 0.00017.

On to `Cc1ccc(NC2=NCCC3(CCCCC3)S2)cc1`, for which the solubility (mole fraction) runs as follows: (293.15 K) 0.00028; (298.15 K) 0.000326; (303.15 K) 0.000379; (310.15 K) 0.000445; (315.15 K) 0.00052.

In the case of `COc1ccc(NC2=NCCC3(CCCCC3)S2)cc1`, the solubility (mole fraction) (293.15 K) turned out to be 0.000149; the solubility (mole fraction) (298.15 K) amounted to 0.000182; the solubility (mole fraction) (303.15 K) stood at 0.000221; the solubility (mole fraction) (310.15 K) stood at 0.000295; the solubility (mole fraction) (315.15 K) came out at 0.000357.

As to `Brc1ccc(NC2=NCCC3(CCCCC3)S2)cc1`, the solubility (mole fraction) turned out to be 2.46e-05 (293.15 K); 3.31e-05 (298.15 K); 4.34e-05 (303.15 K); 6.54e-05 (310.15 K); 8.27e-05 (315.15 K).
